The values that follow come from patent publication US7939568B2, “Use of a composition comprising vitamin K1 oxide or a derivative thereof for the treatment and/or the prevention of mammal dermatological lesions” (Auriga International S.A., priority 2003, dated 2011).

Data set [1] can be described thus: Transformation in presence of light. The class given is physicochemical. From the text:
The improved stability of vitamin K1 oxide compared to vitamin K1, reduces also unexpectedly the side effects of a cosmetic composition. […] Such transformation of vitamin K1 oxide is not observed in the presence of light and these side effects are not present when the cosmetic composition according to the invention is applied upon mammal skin.

Data set [2] in a line: Formation of chromophoric group on mixing with retinol. The conditions noted are these: mixing with retinol (or retinol palmitate). It is filed as physicochemical.

The structures appear in SMILES notation.

In the case of `CC(=CCC12OC1(C)C(=O)c1ccccc1C2=O)CCCC(C)CCCC(C)CCCC(C)C` (stereo not drawn) [vitamin K1 oxide], the “transformation into Menadione (vitamin K3) and 1.4.Naphtoquinone” value in data set [1] is “not observed”. For the same compound, in data set [2], the “formation of chromophoric group” value was “does not allow the formation of chromophoric group”. As for `CC1=C(C/C=C(\C)CCC[C@H](C)CCC[C@H](C)CCCC(C)C)C(=O)c2ccccc2C1=O` [vitamin K1, 2-methyl 3-phytyl-1,4-naphtoquinone], in data set [1], the “transformation into Menadione (vitamin K3) and 1.4.Naphtoquinone” value is “transformed into Menadione (vitamin K3) and 1.4.Naphtoquinone”.
